{"source": "paper PMC9046087", "about": "“Structural basis of tethered agonism of the adhesion GPCRs ADGRD1 and ADGRF1” (Nature, 2022)", "assay_in_all_cases": "BRET assay using TRUPATH biosensors, Gi activation of ADGRF1", "assay_type_in_all_cases": "cell-based", "key": {"[1]": {"target": "T1, ADGRF1 (Homo sapiens, UniProt Q5T601, F641A)", "T1 construct": "Flag (N); expressed in transfected cells; host or cells: HEK293F", "T1 sequence (Q5T601 20-910 F641A)": "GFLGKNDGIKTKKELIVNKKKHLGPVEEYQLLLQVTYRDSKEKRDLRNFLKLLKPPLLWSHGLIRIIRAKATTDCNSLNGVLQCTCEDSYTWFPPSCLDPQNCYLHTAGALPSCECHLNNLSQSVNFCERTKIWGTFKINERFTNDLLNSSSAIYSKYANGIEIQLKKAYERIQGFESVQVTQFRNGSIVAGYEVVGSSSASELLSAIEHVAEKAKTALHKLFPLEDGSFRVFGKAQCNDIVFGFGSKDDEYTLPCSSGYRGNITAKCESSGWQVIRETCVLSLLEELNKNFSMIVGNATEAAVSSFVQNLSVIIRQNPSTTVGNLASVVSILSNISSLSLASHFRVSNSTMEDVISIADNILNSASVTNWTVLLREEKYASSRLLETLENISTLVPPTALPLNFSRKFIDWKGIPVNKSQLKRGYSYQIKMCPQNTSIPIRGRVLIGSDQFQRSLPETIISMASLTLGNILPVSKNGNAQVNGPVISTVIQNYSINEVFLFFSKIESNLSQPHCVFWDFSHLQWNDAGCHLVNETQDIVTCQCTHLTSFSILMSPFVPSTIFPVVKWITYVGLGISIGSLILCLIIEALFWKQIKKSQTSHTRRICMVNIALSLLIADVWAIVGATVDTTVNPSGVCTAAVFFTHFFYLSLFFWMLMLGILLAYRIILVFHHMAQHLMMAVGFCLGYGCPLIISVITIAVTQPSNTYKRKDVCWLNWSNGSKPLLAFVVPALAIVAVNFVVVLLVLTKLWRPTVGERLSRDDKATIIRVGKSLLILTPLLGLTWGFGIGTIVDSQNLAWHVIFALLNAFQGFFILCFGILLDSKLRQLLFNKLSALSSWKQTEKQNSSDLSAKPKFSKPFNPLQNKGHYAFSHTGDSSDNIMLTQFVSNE", "conditions": "ADGRF1 F641^2.64bA", "summary_of_the_method": "(§1)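 HEK293F cells transiently co-transfected with wild-type or mutant receptor, Gα-RLuc8 (GαsS for Gs, Gαi1 for Gi), Gβ3 and Gγ9-GFP2 at 2:1:1:1. After 30 min at 37 °C and coelenterazine 400a, cells stimulated with synthetic stalk peptide. BRET = GFP2/RLuc8 emission, last of five readings.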"}, "[2]": {"target": "T2, ADGRF1 (Homo sapiens, UniProt Q5T601, F690A)", "T2 construct": "Flag (N); expressed in transfected cells; host or cells: HEK293F", "T2 sequence (Q5T601 20-910 F690A)": "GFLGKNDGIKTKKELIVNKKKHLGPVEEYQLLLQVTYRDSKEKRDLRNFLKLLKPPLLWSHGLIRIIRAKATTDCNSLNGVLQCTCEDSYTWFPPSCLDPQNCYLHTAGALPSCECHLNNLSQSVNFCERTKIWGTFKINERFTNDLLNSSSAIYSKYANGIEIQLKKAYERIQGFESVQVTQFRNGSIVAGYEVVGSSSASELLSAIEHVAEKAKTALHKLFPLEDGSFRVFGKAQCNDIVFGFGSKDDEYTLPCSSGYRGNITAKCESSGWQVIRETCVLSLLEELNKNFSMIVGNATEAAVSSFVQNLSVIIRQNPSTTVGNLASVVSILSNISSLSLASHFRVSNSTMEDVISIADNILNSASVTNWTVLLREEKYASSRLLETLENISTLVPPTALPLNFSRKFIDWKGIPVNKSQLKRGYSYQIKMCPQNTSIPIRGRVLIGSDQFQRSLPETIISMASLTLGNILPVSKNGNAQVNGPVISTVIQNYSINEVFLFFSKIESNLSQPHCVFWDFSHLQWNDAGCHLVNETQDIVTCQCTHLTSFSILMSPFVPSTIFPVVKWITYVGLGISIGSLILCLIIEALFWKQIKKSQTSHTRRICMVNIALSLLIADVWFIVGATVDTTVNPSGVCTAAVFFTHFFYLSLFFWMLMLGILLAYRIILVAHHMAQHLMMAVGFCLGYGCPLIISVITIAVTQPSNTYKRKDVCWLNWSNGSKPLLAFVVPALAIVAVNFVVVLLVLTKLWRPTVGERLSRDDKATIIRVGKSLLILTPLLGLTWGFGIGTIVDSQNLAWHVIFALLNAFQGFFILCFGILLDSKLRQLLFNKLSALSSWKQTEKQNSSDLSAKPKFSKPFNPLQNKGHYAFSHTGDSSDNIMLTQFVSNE", "conditions": "ADGRF1 F690^ICL2A", "summary_of_the_method": "as §1"}, "[3]": {"target": "T3, ADGRF1 (Homo sapiens, UniProt Q5T601, F747A)", "T3 construct": "Flag (N); expressed in transfected cells; host or cells: HEK293F", "T3 sequence (Q5T601 20-910 F747A)": "as the sequence (Q5T601 20-910 F641A) above, with A622F, F728A counted along it", "conditions": "ADGRF1 F747^5.36bA, n = 3", "summary_of_the_method": "as §1"}, "[4]": {"target": "T4, ADGRF1 (Homo sapiens, UniProt Q5T601, F823A)", "T4 construct": "Flag (N); expressed in transfected cells; host or cells: HEK293F", "T4 sequence (Q5T601 20-910 F823A)": "as the sequence (Q5T601 20-910 F641A) above, with A622F, F804A counted along it", "conditions": "ADGRF1 F823^7.42bA", "summary_of_the_method": "as §1"}, "[5]": {"target": "T5, ADGRF1 (Homo sapiens, UniProt Q5T601, T810A)", "T5 construct": "Flag (N); expressed in transfected cells; host or cells: HEK293F", "T5 sequence (Q5T601 20-910 T810A)": "as the sequence (Q5T601 20-910 F641A) above, with A622F, T791A counted along it", "conditions": "ADGRF1 T810^6.59bA", "summary_of_the_method": "as §1"}, "[6]": {"target": "T6, ADGRF1 (Homo sapiens, UniProt Q5T601, V585A)", "T6 construct": "Flag (N); expressed in transfected cells; host or cells: HEK293F", "T6 sequence (Q5T601 20-910 V585A)": "as the sequence (Q5T601 20-910 F641A) above, with V566A, A622F counted along it", "conditions": "ADGRF1 V585^1.36bA", "summary_of_the_method": "as §1"}, "[7]": {"target": "T7, ADGRF1 (Homo sapiens, UniProt Q5T601, V689A)", "T7 construct": "Flag (N); expressed in transfected cells; host or cells: HEK293F", "T7 sequence (Q5T601 20-910 V689A)": "T2 sequence (Q5T601 20-910 F690A) with V670A, A671F", "conditions": "ADGRF1 V689^ICL2A", "summary_of_the_method": "as §1"}, "[8]": {"conditions": "n = 3, read-out: pEC50 (mean ± s.e.m.) (converted)"}}, "note": "Where a chain is given by its changes, count along the chain named. Ends that are not written are not given here."}
{"sequence": "TSFSILMSPFVP [pF1]", "values": [{"measurement": "Emax (mean ± s.e.m.)", "setting": "[1]; n = 3", "result": "82 ± 15 % of WT"}, {"measurement": "EC50", "setting": "[1]; [8]", "result": 204, "unit": "nM"}, {"measurement": "Emax (mean ± s.e.m.)", "setting": "[2]; n = 3", "result": "94 ± 15 % of WT"}, {"measurement": "EC50", "setting": "[2]; [8]", "result": 79.4, "unit": "nM"}, {"measurement": "EC50", "setting": "[3]", "result": 1220, "unit": "nM"}, {"measurement": "Emax (mean ± s.e.m.)", "setting": "[3]", "result": "80 ± 13 % of WT"}, {"measurement": "Emax (mean ± s.e.m.)", "setting": "[4]; n = 3", "result": "90 ± 14 % of WT"}, {"measurement": "EC50", "setting": "[4]; [8]", "result": 316, "unit": "nM"}, {"measurement": "Emax (mean ± s.e.m.)", "setting": "[5]; n = 3", "result": "81 ± 12 % of WT"}, {"measurement": "EC50", "setting": "[5]; [8]", "result": 562, "unit": "nM"}, {"measurement": "Emax (mean ± s.e.m.)", "setting": "[6]; n = 3", "result": "84 ± 8 % of WT"}, {"measurement": "EC50", "setting": "[6]; [8]", "result": 437, "unit": "nM"}, {"measurement": "Emax (mean ± s.e.m.)", "setting": "[7]; n = 3", "result": "67 ± 7 % of WT"}, {"measurement": "EC50", "setting": "[7]; [8]", "result": 263, "unit": "nM"}]}
